According to PubChem BioAssay (NCI):
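Interpolation was linear, between the two tested concentrations surrounding the appropriate level; five concentrations were tested over 48 hours in 96-well plates. TGI denotes the concentration required for complete inhibition of growth.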

Assays:
Test in all cases: inhibition of tumour cell growth, NCI panel, 48 h
[1] = system: SN12C renal
[2] = system: NCI-H522 lung
[3] = system: K-562 leukemia
[4] = system: NCI-H460 lung
[5] = system: HT29 colon
[6] = system: HOP-62 NSCLC
[7] = system: SK-MEL-2 melanoma
[8] = system: HCT-15 colon
[9] = system: NCI/ADR-RES ovarian
[10] = system: CCRF-CEM leukemia

Row | Compound | TGI [1] | TGI [2] | TGI [3] | TGI [4] | TGI [5] | TGI [6] | TGI [7] | TGI [8] | TGI [9] | TGI [10]
1 | Cc1nnc(SCc2nc(C#N)c(C#N)nc2CSc2nnc(C)s2)s1 | 38.2 µM | 9.22 µM | > 52.3 µM | > 59.2 µM | 37.2 µM | 37.8 µM | 63.4 µM | 26.4 µM | > 92.2 µM | –
2 | Cc1ccc(S(=O)(=O)NC(=O)Nc2ccc(C(=O)O)cc2)cc1 | > 100 µM | > 100 µM | > 100 µM | > 100 µM | > 100 µM | > 100 µM | > 100 µM | > 100 µM | > 100 µM | > 100 µM
3 | O=C(O)CCCc1ccc2c(c1)C(C(=O)O)CC2 (stereo not drawn) | > 100 µM | > 100 µM | > 100 µM | > 100 µM | > 100 µM | > 100 µM | > 100 µM | > 100 µM | > 100 µM | > 100 µM
4 | BrC1(c2ccccc2)C[n+]2c(-c3ccccc3)cc(-c3ccccc3)cc2-c2ccccc21 (stereo not drawn) | 16.7 µM | 11.3 µM | 1.48 µM | 6.99 µM | 3.46 µM | 7.41 µM | 1.08 µM | 12 µM | 65.5 µM | 21.2 µM
5 | Cc1cc(-c2ccc(N=Nc3ccc4c(S(=O)(=O)O)cc(S(=O)(=O)O)c(N)c4c3O)c(C)c2)ccc1N=Nc1ccc2c(S(=O)(=O)O)cc(S(=O)(=O)O)c(N)c2c1O | > 100 µM | > 100 µM | > 100 µM | > 100 µM | > 100 µM | > 100 µM | > 100 µM | > 100 µM | > 100 µM | > 100 µM
6 | O=C1/C(=C\c2cccc(Oc3ccccc3)c2)SC(c2ccccc2)N1c1cc(Cl)ccc1Cl (stereo not drawn) | 48.9 µM | 53 µM | > 100 µM | > 100 µM | > 100 µM | > 100 µM | > 100 µM | > 100 µM | > 100 µM | 3.62 µM
7 | CC(C)CNP(=O)(NCC(C)C)Oc1ccc(CC(NC(=O)OCc2ccccc2)C(=O)OCc2ccccc2)cc1 (stereo not drawn) | 39.9 µM | 30.5 µM | 59.4 µM | 33.4 µM | 33.4 µM | 30.8 µM | 34.8 µM | 89.6 µM | > 100 µM | 32.8 µM
8 | CC1(C)CCC[C@@]2(C)C1CC[C@@]1(CO)O[C@H](C3=CC(=O)OC3O)C[C@H]12 (stereo partly drawn) | 26.6 µM | 17.4 µM | 63.9 µM | 38.8 µM | 30.6 µM | 19.3 µM | 28.9 µM | 23.5 µM | 36.7 µM | 10 µM
9 | O=c1c2ccc(Cl)cc2oc2c(CSc3ccccc3)cccc12 | > 100 µM | > 53.1 µM | > 100 µM | 90.4 µM | > 100 µM | > 100 µM | > 100 µM | > 100 µM | > 100 µM | > 100 µM
10 | CC(=O)Oc1cc2c(cc1OCC(F)(F)F)[C@H]1CC[C@]3(C)[C@@H](OC(C)=O)CC[C@H]3[C@@H]1CC2=O | 57.6 µM | > 70 µM | > 100 µM | > 100 µM | > 63.8 µM | > 70 µM | 44.7 µM | > 88 µM | 43.6 µM | 40.1 µM
11 | O=c1c2[nH]cnc2n(-c2ccccc2)c(=S)n1-c1ccccc1 | > 100 µM | > 100 µM | > 100 µM | > 100 µM | > 100 µM | > 100 µM | > 100 µM | > 100 µM | > 100 µM | > 100 µM
12 | COc1cc2c(cc1O)NC(=O)[C@@H]1C[C@@H](O)CN1C2=O | > 100 µM | > 100 µM | > 100 µM | > 100 µM | > 100 µM | > 100 µM | > 100 µM | > 100 µM | > 100 µM | > 100 µM
13 | Cn1c2c(c3c(=O)[nH]ncc31)Cc1ccccc1-2 | 47.9 µM | > 100 µM | > 100 µM | 15.1 µM | > 100 µM | > 100 µM | 41.8 µM | > 100 µM | > 100 µM | > 100 µM
14 | O=S(Nc1ccccc1)c1ccc(Cl)cc1 (stereo not drawn) | > 100 µM | > 100 µM | > 100 µM | > 100 µM | > 100 µM | > 100 µM | > 100 µM | > 100 µM | > 100 µM | > 100 µM
15 | C/C(=N\NC(=S)NC(C)(C)C)c1nc2ncccc2[nH]1 | > 100 µM | 51.2 µM | > 100 µM | 55 µM | > 100 µM | > 84.9 µM | > 80.3 µM | > 100 µM | > 84.4 µM | 35.1 µM
16 | CC1(C)C(=O)/C(=C/c2ccccc2)C(C)(C)C1(C)C | > 100 µM | > 100 µM | > 100 µM | > 100 µM | > 100 µM | 98.9 µM | > 100 µM | > 100 µM | > 100 µM | > 71.5 µM
17 | CC(=O)CCC1(C(=O)OCC(C)C)CCCC1=O (stereo not drawn) | > 100 µM | > 100 µM | > 100 µM | > 100 µM | > 100 µM | > 100 µM | > 100 µM | > 100 µM | > 100 µM | > 100 µM
18 | O=C(N/N=C/c1ccccc1)c1c(F)c(F)c(F)c(F)c1F | > 100 µM | 49.2 µM | > 100 µM | > 100 µM | > 100 µM | > 100 µM | > 100 µM | > 100 µM | > 100 µM | > 100 µM
19 | CC(C)(NO)/C(=N\O)c1ccccc1 | > 10 µM | > 10 µM | > 10 µM | > 10 µM | > 10 µM | > 10 µM | > 10 µM | > 10 µM | > 10 µM | > 10 µM
20 | Cc1ccc(C(=O)Nc2ccc(CP(=O)(O)O)cc2CP(=O)(O)O)cc1N | > 100 µM | > 100 µM | > 100 µM | – | > 100 µM | > 100 µM | > 100 µM | > 100 µM | > 100 µM | > 100 µM
21 | Clc1[nH]nc2ccccc12 | > 100 µM | > 100 µM | > 100 µM | > 100 µM | > 100 µM | > 100 µM | > 100 µM | > 100 µM | > 100 µM | > 100 µM
